Series [1] concerns HEK293. Particulars: human, 48 h, 100 µM.
Protocol: Culturing of HepG2, A549 and HEK293 cells. The human hepatocellular carcinoma cell line HepG2, the lung adenocarcinoma cell line A549 and Human Embryonic (HEK) 293 cells were cultured in Dulbecco's Modified Eagle Medium (DMEM), containing 10% Fetal Bovine Serum
(FBS) and 1% penicillin-streptomycin mixture. Cells were maintained according to standard cell
Cytotoxicity assay. An MTT-based assay was employed to evaluate the viability of HepG2,
HEK293 and A549 cells after challenge with selected LasB inhibitors and performed as described
Series [2] deals with T1, COX-1 (Ovis aries, UniProt P05979).
T1 construct: purchased Abcam (Cambridge, UK)
T1 sequence (P05979 25-600): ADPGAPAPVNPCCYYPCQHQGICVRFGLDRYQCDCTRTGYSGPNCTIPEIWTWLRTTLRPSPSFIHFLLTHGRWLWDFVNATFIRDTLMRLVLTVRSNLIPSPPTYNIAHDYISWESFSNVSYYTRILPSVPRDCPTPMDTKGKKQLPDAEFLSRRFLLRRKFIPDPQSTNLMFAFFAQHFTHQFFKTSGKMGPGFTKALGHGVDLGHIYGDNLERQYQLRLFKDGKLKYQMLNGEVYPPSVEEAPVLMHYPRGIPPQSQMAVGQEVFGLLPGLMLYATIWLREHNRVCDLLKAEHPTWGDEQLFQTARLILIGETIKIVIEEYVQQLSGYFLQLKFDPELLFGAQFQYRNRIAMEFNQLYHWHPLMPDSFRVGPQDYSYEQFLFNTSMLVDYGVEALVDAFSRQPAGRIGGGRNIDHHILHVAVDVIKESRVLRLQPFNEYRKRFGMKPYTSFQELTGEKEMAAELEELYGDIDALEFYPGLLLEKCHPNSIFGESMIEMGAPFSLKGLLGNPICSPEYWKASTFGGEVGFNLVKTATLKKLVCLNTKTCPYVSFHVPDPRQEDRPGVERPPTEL
Kind of series: Fluorometric COX-1 inhibitor assay. Type of series: biochemical, human.

The record followed here is article PMC10755728, “Inhibitors of the Elastase LasB for the Treatment of Pseudomonas aeruginosa Lung Infections” (ACS Central Science, 2023).

By inhibition is commonly meant the change of the read-out against control, counted positive when it falls. A higher inhibition goes with a strong effect.

As for `CC(C)CC(C(=O)Nc1ccc(C(F)(F)F)cc1)P(=O)(O)O` (centres unmarked) [Compound 4b], the “% growth inhibition HEK293” value in series [1] is reported as 11 ± 1%. Also, the inhibition at 100 µM in series [2] was less than 10%.
